How the values were obtained:
[1] = test system: ALDH; assay: In vitro radio uptake assay for ALDH activity, K562 cells; assay type: cell-based, human; conditions: 1 μCi, 37° C., 30 mins, radioactivity (CPM) by gamma counter, FIG. 1
Text: (§1) The K562 human chronic myelogenous leukemia cell line was purchased from American Type Culture Collection (CLL-243™) and maintained in suspension in IMDM media supplemented with 10% FBS. The murine leukemia cell line L1210 (ALDH^low) and L1210/cpa (ALDH^hi) were provided by Dr. Richard J. Jones (Johns Hopkins University) and maintained in suspension in RPMI 1640 supplemented with 10% FBS. Human glioma cell line, U87-tri was provided by Dr. John Laterra (Kennedy Krieger Institute) and maintained in DMEM media supplemented with 10% FBS. All cells were grown at 37° C. in a humidified incubator with 5% CO2.
(§2) ^125IBz-A-DA was dissolved in 100% DMSO at 10 mCi/50 μL concentration and stored at −20° C. as stock solutions. 25 μL of a stock was deprotected by mixing with the same volume of 2N HCl for 30 mins at room temperature and the resulting aldehyde (IBz-A) were neutralized by adding 350 μL of the assay buffer (PBS supplemented with 1% FBS and 50 μM Verapamil, Sigma V4629) and immediately used.
(§3) One million cells were resuspended in the assay buffer and 1 μCi of IBz-A (with or without 1000 fold cold competitor) was added to the cell. […] Cells were resuspended in the cold assay buffer ([…]) and stored in the ice until analyzed. Cells were washed twice with cold assay buffer and the radioactivity was measured by LKB Wallac gamma counter (1282 compugamma CS).

[2] = target: T1, ALDH (Mus musculus, UniProt P24549); assay: In vitro radio uptake assay for ALDH activity, L1210/cpa cells; assay type: cell-based, murine; conditions: L1210/cpa (ALDH^hi) cells; 1 μCi, 37° C., 30 mins; radioactivity (CPM) by gamma counter; FIG. 1
T1 construct: was tested for specific uptake by ALDH-expressing cell lines (K562 and L1210/cpa); endogenous in cells; host or cells: L1210/cpa
T1 sequence (P24549 1-501): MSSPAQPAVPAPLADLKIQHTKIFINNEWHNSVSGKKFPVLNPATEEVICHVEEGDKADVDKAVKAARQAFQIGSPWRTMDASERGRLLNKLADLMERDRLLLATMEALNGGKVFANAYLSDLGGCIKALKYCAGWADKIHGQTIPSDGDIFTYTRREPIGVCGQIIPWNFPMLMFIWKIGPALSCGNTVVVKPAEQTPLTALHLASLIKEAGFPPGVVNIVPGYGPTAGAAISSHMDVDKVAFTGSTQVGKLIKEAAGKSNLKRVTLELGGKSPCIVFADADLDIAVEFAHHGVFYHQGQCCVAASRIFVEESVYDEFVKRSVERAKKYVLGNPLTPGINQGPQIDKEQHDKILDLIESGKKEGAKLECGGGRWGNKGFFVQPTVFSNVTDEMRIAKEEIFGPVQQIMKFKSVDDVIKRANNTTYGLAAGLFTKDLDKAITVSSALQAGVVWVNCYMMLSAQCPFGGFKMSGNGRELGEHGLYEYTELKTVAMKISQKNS
Text: as §1, §2, §3

O=CCNC(=O)c1ccc([125I])cc1 [^125IBz-A]
increase of uptake compared with cells treated with DEAB (ALDH inhibitor) [1]: more than 5 fold | increase of uptake compared with cells treated with DEAB (ALDH inhibitor) [2]: more than 5 fold

From patent US20160008493A1, “RADIOACTIVE SUBSTRATES FOR ALDEHYDE DEHYDROGENASE” (THE JOHNS HOPKINS UNIVERSITY, priority 2013, published 2016)
